According to US20200297711A1, “PHARMACEUTICAL COMPOSITION COMPRISING FGFR SELECTIVE TYROSINE KINASE INHIBITOR” (priority 2017, published 2020):
Marks after values point to notes of the source that are not given here.

Experiment: Pharmacokinetics in plasma following single dose and repeated doses of Compound A 1.5 succinate
Assay type: in vivo, human
Details: Compound B
Description: In order to evaluate the PK when administered as a single dose, a single dose of Compound A for each treatment group (at the corresponding dosage for that group) was administered on Day 1. Compound A was administered when fasted, immediately after waking up with at least 10 hours fasting. Taking any meal was prohibited for 2 hours after administration and only drinking water was allowed.
Cycle 1 was started between 8 and 10 days after dosing in Cycle 0 and Compound A was administered continuously once daily. Compound A was administered at least 2 hours after breakfast, and any food intake was prohibited for 1 hour after administration. However, on Day 8 of Cycle 1, Compound A was administered immediately after waking up while the subject was fasted after at least 10 hours of overnight fasting in order to evaluate the PK. Taking any meals was prohibited for 2 hours after administration and only drinking water was allowed.
Plasma concentration profile of Compound A following a single dose and repeated doses of Compound A 1.5 succinate are shown in FIG. 1 and FIG. 2, respectively. The profile shown in FIG. 2 is that at steady state.
(§1) The pharmacokinetic parameters of Compound A following the single dose and repeated doses of Compound A 1.5 succinate are shown in the following table. The pharmacokinetic parameters of Compound A following repeated doses of Compound A 1.5 succinate shown below are those at steady state.
as §1, with “1.5 succinate updated after obtaining the above data are shown” for “1.5 succinate are shown”
The pharmacokinetic parameters of Compound B following the single dose and repeated doses of Compound A 1.5 succinate are shown in the following table. The pharmacokinetic parameters of Compound B following repeated doses of Compound A 1.5 succinate shown below are those at steady state.

[1] = repeated once-daily doses of Compound A 30 mg, steady state (n = 2)
[2] = repeated once-daily doses of Compound A 60 mg, steady state (n = 2)
[3] = repeated once-daily doses of Compound A 100 mg, steady state (n = 3)
[4] = repeated once-daily doses of Compound A 140 mg, steady state (n = 3)
[5] = repeated once-daily doses of Compound A 180 mg, steady state (n = 3)
[6] = single dose of Compound A 30 mg (n = 2)
[7] = single dose of Compound A 60 mg (n = 3)
[8] = single dose of Compound A 100 mg (n = 3)
[9] = single dose of Compound A 140 mg (n = 3)
[10] = single dose of Compound A 180 mg (n = 3)

## CNC(=O)n1ccc2cc(Oc3ccnc(NC(=O)c4ccc(C5CCNCC5)cc4)c3)c(OCCOC)cc21 [Compound B, 6-(2-Methoxyethoxy)-N-methyl-5-((2-(4-(piperidin-4-yl)benzamide)pyridin-4-yl)oxy)-1H-indole-1-carboxamide]
[1]
  AUC(0-t): 194 ng·h/mL
  Cavg: 7.71 ng/mL
  Cmax: 12.4 ng/mL
  Cmin: 5.19 ng/mL
  tmax, median (minimum − maximum): 3.49 (1.97-5.00) h
[2]
  AUC(0-t): 565 ^a^ h* ng/mL
  Cavg: 22.6 ^a ng/mL
  Cmax: 44.2 ^a ng/mL
  Cmin: 12.3 ^a ng/mL
  tmax, median (minimum − maximum): 2.54 (2.07-3.00) ^a h
[3]
  AUC(0-t): 805 ± 195 ng·h/mL
  Cavg: 32.3 ± 7.79 ng/mL
  Cmax: 55.4 ± 14.5 ng/mL
  Cmin: 17.4 ± 7.37 ng/mL
  tmax, median (minimum − maximum): 5.00 (4.98-5.05) h
[4]
  AUC(0-t): 1620 ± 460 ng·h/mL
  Cavg: 66.1 ± 18.8 ng/mL
  Cmax: 106 ± 51.8 ng/mL
  Cmin: 41.5 ± 10.9 ng/mL
  tmax, median (minimum − maximum): 5.00 (2.98-5.08) h
[5]
  AUC(0-t): 1500 ± 686 ng·h/mL
  Cavg: 60.4 ± 27.7 ng/mL
  Cmax: 98.0 ± 39.5 ng/mL
  Cmin: 32.8 ± 13.0 ng/mL
  tmax, median (minimum − maximum): 5.00 (3.05-5.08) h
[6]
  AUC(0-inf): 297 ng·h/mL
  AUC(0-t): 274 ng·h/mL
  Cmax: 19.2 ng/mL
  t1/2: 21.5 h
  tmax, median (minimum − maximum): 3.59 (2.02-5.15) h
[7]
  AUC(0-inf): 687 ± 354 ng·h/mL
  AUC(0-t): 652 ± 352 ng·h/mL
  Cmax: 35.1 ± 19.1 ng/mL
  t1/2: 26.1 ± 10.2 h
  tmax, median (minimum − maximum): 4.98 (3.00-5.07) h
[8]
  AUC(0-inf): 699 ± 163 ng·h/mL
  AUC(0-t): 647 ± 153 ng·h/mL
  Cmax: 38.4 ± 4.36 ng/mL
  t1/2: 20.0 ± 0.794 h
  tmax, median (minimum − maximum): 4.95 (2.97-5.10) h
[9]
  AUC(0-inf): 1410 ± 216 ng·h/mL
  AUC(0-t): 1350 ± 233 ng·h/mL
  Cmax: 63.8 ± 36.1 ng/mL
  t1/2: 40.50 ± 6.46 h
  tmax, median (minimum − maximum): 5.00 (4.88-5.08) h
[10]
  AUC(0-inf): 1370 ± 703 ng·h/mL
  AUC(0-t): 1320 ± 693 ng·h/mL
  Cmax: 50.7 ± 20.7 ng/mL
  t1/2: 39.9 ± 6.27 h
  tmax, median (minimum − maximum): 5.00 (3.00-5.02) h
